# According to US9345245B2, “Synthetic compounds for vegetative ABA responses” (THE REGENTS OF THE UNIVERSITY OF CALIFORNIA, priority 2012, dated 2016):
# Assays:
# ABA-responsive genes [1] = assay: ATH1 microarray analysis of seedlings; assay type: in vivo, Arabidopsis; conditions: wild-type seedlings; 25 μM
# Method: (§1) FIG. 9. LC66C6 induces numerous ABA-responsive genes. […] Ten-day old seedlings were treated with carrier solvent (DMSO) or either 25 μM ABA, pyrabactin or LC66C6 for 8 hours. Total RNA was then prepared labeled and hybridized to ATH1 microarrays. Data plotted are log 2 transformed average expression values for ˜13K probes that were detectable across all experiments. Data shown are averages determined from triplicate biological replicates. (C) and (D) show the expression of a reporter gene in different plant tissues after treatment with vehicle (DMSO), pyrabactin, LC66C6, or (+)-ABA.
# Total RNA was isolated using RNAeasy Plant Mini Kit (Qiagen, USA) according to the manufacturer's instructions. cDNA synthesis, labeling and hybridization to the Arabidopsis ATH1 chips (Affymetrix, USA) were performed by the IIGB Core Instrumentation Facility of University of California at Riverside using Affymetrix protocols. Biological triplicate samples were hybridized for DMSO controls, ABA, pyrabactin and quinabactin treatments; compound were applied at 25 μM final concentration and RNA prepared from frozen tissue after 6 hours exposure to compounds or controls. Expression signals for probe sets were calculated and normalized by MASS Statistical Algorithm (Affymetrix, USA). Experimental filtering of array data was performed for the presence of signal in all experiments. […]
# [2] = tested on: Physcomitrella patens protonema; assay: Protonema growth of moss; assay type: in vivo; conditions: 200 μM, 10 days
# Method: FIG. 17. The effect of ABA and its agonists in Physcomitrella patens and Chlamydomonas. Protonemal growth images (A) and quantitative analysis (B) of the effects of ABA and agonists on Phsycomitrella patens. Protonema were grown on 200 μM of specific test chemical for 10 days. […] Pyrabactin bleached protonema. (C) The expression of ABA-responsive genes of Physcomitrella patens. Protonema were treated with 200 μM chemical solutions for 3 h. (D) Colony growth of Chlamydomonas on the chemical with salinity stress and osmotic stress. There was no effect of ABA and LC66C6 on the Chlamydomonas growth with and without stresses.
# ABA-responsive genes [3] = assay: Quantitative RT-PCR of ABA-responsive genes in Arabidopsis; assay type: in vivo
# Method: as §1
# Total RNA was isolated using Plant RNA purification reagent (Invitrogen, USA) according to the manufacturer's instructions. cDNA was synthesized from 1 μg of total RNA using the QantiTec reverse transcription kit (Qiagen, USA). Real-time PCR using Maxima® SYBR Green/Fluorescein qPCR Master Mix (Fermentas) was performed with the iQ5 real-time PCR detection system (Bio-Rad, Hercules, Calif.). The relative amounts of target mRNAs were determined using the relative standard curve method and were normalized by relative amount of internal control mRNA. Biological triplicate experiments were performed.
# PYR/PYL receptors = assay: Yeast two-hybrid agonist assay (PYR/PYL receptor - PP2C HAB1 interaction); assay type: cell-based, Arabidopsis; conditions: 5 uM of test chemicals
# Method: FIG. 1. Novel ABA agonists bind to multiple PYR/PYL. (A) Chemical structure of naturally occurring (+)-ABA, its (-) analog and selected ABA agonists. (B) Yeast two-hybrid agonist assays of PYR/PYL receptor sensitivity to 5 uM of test chemicals. Specific PYR/PYL Receptors and the PP2C HAB1 are expressed as Gal4 BD or AD fusion proteins respectively, as described in the text. A previously described yeast two-hybrid system was used in high throughput screens (HTS) to identify ABA agonists (see, Peterson F C, et al. (2010) Structural basis for selective activation of ABA receptors. Nature Structural & Molecular Biology 17(9):1109-1111). In this system the agonist promoted receptor-PP2C interaction drives expression of a URA3 or HIS3 reporter gene and rescues uracil or histidine auxotrophy of parental strains (Peterson F C, et al. (2010); […], Harlow E, & Boeke J D (1996) Reverse two-hybrid and one-hybrid systems to detect dissociation of protein-protein and DNA-protein interactions. Proceedings of the National Academy of Sciences of the United States of America 93(19):10315-10320). HTS were conducted using 5 different reporter strains that express binding domain (BD) fusions to […]3 or PYL4; these were co-expressed with activation domain (AD) fusions to HAB1 (pACT-HAB1); the constructs used have been described previously (Park et al. 2009). […]
# Arabidopsis seeds = conditions: pyr1 single mutant; Park et al. 2009; cited from earlier work
compound,measurement,setting,value
O=S(=O)(NCc1ccccn1)c1ccc(Br)c2ccccc12 [pyrabactin],genome-wide gene expression pattern compared with ABA,ABA-responsive genes [1],did not induce an expression pattern similar to that of ABA
same,bleaching of protonema (toxicity),[2],bleached the protonema
same,"induction of MAPKKK18, RD29A, and RD29B mRNAs","ABA-responsive genes [3]; Col and Ler ecotypes and pyr1, pyl1, ply2, pyl3 and pyl4 single mutants",did not significantly induce expression of any of the genes assayed
same,"expression of ABF3, GBF3, NCED3, and RD29A",ABA-responsive genes [3]; Col wild-type plants,did not induce significant expression of any genes analyzed
same,expression of RD29B and MAPKKK18 mRNA,ABA-responsive genes [3]; wild-type plants,did not induce gene expression
same,receptor selectivity in yeast two-hybrid assay,PYR/PYL receptors,much greater receptor selectivity than ABA or the new agonist LC66C6
same,germination of pyr1 mutant,Arabidopsis seeds,pyr1 mutant germinates
